Bounds are passed on as bounds.

The target of this assay is T1, human androgen receptor (AR) (Homo sapiens, UniProt P10275).
T1 construct: The full length human androgen receptor (AR) was derived from cDNA expressed in a baculovirus expression system; purchased Ligand Pharmaceuticals (San Diego, CA); host or cells: SF21 insect cells (baculovirus)
T1 sequence (P10275 1-920): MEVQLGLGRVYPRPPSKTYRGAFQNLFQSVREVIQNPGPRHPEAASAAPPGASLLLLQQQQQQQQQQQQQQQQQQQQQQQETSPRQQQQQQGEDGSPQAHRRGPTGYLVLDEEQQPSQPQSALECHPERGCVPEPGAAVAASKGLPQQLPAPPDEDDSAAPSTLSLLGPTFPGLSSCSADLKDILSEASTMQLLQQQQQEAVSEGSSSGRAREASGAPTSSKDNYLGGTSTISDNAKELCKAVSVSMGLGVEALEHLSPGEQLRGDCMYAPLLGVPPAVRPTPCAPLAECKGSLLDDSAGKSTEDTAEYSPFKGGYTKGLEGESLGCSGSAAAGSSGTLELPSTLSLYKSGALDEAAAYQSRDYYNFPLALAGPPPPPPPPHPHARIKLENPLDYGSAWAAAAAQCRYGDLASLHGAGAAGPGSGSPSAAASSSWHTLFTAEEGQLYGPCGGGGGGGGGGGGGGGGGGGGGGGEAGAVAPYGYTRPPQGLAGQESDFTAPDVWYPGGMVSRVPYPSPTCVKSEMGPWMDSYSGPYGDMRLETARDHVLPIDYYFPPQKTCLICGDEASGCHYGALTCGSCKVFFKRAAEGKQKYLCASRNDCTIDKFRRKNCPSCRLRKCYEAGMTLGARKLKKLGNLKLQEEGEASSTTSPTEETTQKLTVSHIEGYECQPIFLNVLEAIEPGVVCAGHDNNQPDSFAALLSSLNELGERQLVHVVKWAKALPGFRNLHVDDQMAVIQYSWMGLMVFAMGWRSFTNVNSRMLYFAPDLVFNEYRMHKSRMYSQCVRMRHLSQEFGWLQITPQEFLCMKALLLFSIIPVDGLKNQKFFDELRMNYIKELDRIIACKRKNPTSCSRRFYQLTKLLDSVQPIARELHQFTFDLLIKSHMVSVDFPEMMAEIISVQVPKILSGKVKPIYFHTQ
The assay is described as follows: human androgen receptor (AR) cytosol binding assay, [3H]-dihydrotestosterone competition. The following applies: 1-2 nM [3H]-DHT, 4 °C for 18 hours; Cheng-Prusoff. An excerpt:
For human androgen receptor (AR) cytosol binding assays, [^3H]-dihydrotestosterone (DHT) (120-140 Ci/mmol) was purchased from Amersham Life Science (Arlington Heights, IL), DHT was purchased from Sigma Chemical Co. (St. Louis, MO), CHAPS and DTT were purchased from Boehringer Mannheim GmbH (W. Germany), and all other reagents were purchased from Sigma. The full length human androgen receptor (AR) was derived from cDNA expressed in a baculovirus expression system from Ligand Pharmaceuticals (San Diego, CA). The methods concerning growth, purification, and assays of recombinant viruses followed the protocol outlined by Summers, M.D., Smith, G.E., A Manual of Methods for Baculovirus Vectors and Insect Cell Culture Procedures, Tex. Agric. Exp. Stn. [Bull], 1987, No. 155, hereby incorporated by reference. The recombinant plasmids were cotransfected into SF21 cells with wild type AcNPV DNA, and the recombinant viruses were plaque purified.
A receptor extract was prepared from the baculovirus system , and aliquots were stored at -80 °C until used. Typical protein concentrations for these extracts were between 10 and 20 mg/ml. Stock solutions of DHT or other competing compounds were prepared as 5 mM stock solutions in either 100% ethanol or DMSO and serial dilutions were carried out in 1:1 DMSO-ethanol. The assay buffer consisted of the following: 25 mM sodium phosphate, 10 mM potassium fluoride, 10 mM sodium molybdate, 10% glycerol, 1.5 mM EDTA, 2 mM DTT, 2 mM CHAPS and 1 mM PMSF, pH=7.4 at room temperature.
Receptor assays were performed with a final volume of 250 µL containing from 50-75 µg of extract protein, plus 1-2 nM [^3H]-DHT and varying concentrations of competing ligand (0-10-5 M). Assays were set up using a 96-well minitube system and incubations were carried out at 4 °C for 18 hours. Equilibrium under these conditions of buffer and temperature was achieved by 6-8 hours. Nonspecific binding was defined as that binding remaining in the presence of 1000 nM unlabeled DHT. At the end of the incubation period, 200 µL of 6.25% hydroxyapatite was added in wash buffer (binding buffer in the absence of DTT and PMSF). Specific ligand binding to receptor was determined by a hydroxyapatite-binding assay according to the protocol outlined by Wecksler, W.R., Norman, A.W., An Hydroxylapatite Batch Assay for the Quantitation of 1α, 25-Dihydroxyvitamin D3-Receptor Complexes, Anal. Biochem. 1979, 92, 314-323, hereby incorporated by reference. Hydroxyapatite absorbs the receptor-ligand complex, allowing for the separation of bound from free radiolabeled ligand. The mixture was vortexed, incubated for 10 minutes at 4 °C, centrifuged, and the supernatant was removed. The hydroxyapatite pellet was washed twice more with the wash buffer. The amount of receptor-ligand complex was determined by liquid scintillation counting of the hydroxyapatite pellet after the addition of […] EcoScint A scintillation cocktail from National Diagnostics (Atlanta, GA.).
After correcting for nonspecific binding, IC50 values were determined. […] The IC50 values were determined graphically from a log-logit plot of the data. […] Standards are included in each assay and resulting Ki values are determined by use of a modified Cheng-Prusoff equation and used to calculate Ki values for "unknown analogs" outlined by DeBlasi, A., O'Reilly, K., Motulsky, H.J., Calculating Receptor Number from Binding Experiments Using Same Compound As Radioligand and Competitor, TIPS 1989, 10, 227-229, hereby incorporated by reference.
`CNc1ccc(C(c2ccc(N(C)C)cc2)c2cc([N+](=O)[O-])ccc2Cl)cc1` (stereo not shown) [Example 39, 4'-dimethylamino-4"-methylamino-2-chloro-5-nitrotriphenylmethane] had a Ki of 3730 nM. This lies in the single-digit micromolar range.

In turn, `CN(C)c1ccc(C(c2ccc(N(C)C)cc2)c2cc(Cl)ccc2Cl)cc1` [Example 24, 4',4" bis(dimethylamino)-2,5-dichlorotriphenylmethane] returned a Ki of 3730 nM.

For the molecule `CN(CCO)c1ccc(C(c2ccc(N(C)CCO)cc2)c2cc([N+](=O)[O-])ccc2Cl)cc1` [Example 32, 4',4" bis(N-(2-hydroxyethyl) N-methylamino)-2-chloro-5-nitrotriphenylmethane], affinity was put at a Ki of 3520 nM. This Ki and that of the molecule before are within 1.5-fold of each other.

`O=[N+]([O-])c1ccc(Cl)c(C(c2ccc(NCc3ccccc3)cc2)c2ccc(NCc3ccccc3)cc2)c1` [Example 36, 4',4" bis(N-benzylamino)-2-chloro-5-nitrotriphenylmethane] came in with a Ki of 3730 nM.

In turn, `CN(C)c1ccc(C(Oc2ccccc2)c2cc([N+](=O)[O-])ccc2Cl)cc1` (stereo not shown) [Example 52, phenyl-[(4'-dimethylaminophenyl)-(2-chloro-5-nitrophenyl)methyl] ether] had a Ki above 10000 nM.

In the case of `CNc1ccc(C(c2ccc(NC)cc2)c2cc([N+](=O)[O-])ccc2Cl)cc1` [Example 23, 4',4" bis(methylamino)-2-chloro-5-nitrotriphenylmethane], the Ki is 4260 nM.

As for `CN(C)c1ccc(C(c2ccc(N(C)CCO)cc2)c2cc([N+](=O)[O-])ccc2Cl)cc1` (stereo not shown) [Example 42, 4'-dimethylamino-4"-(N-methyl-N-(2-hydroxyethyl)amino)-2-chloro-5-nitrotriphenylmethane], the Ki was 2800 nM.

The molecule `CC(=O)OCCN(C)c1ccc(C(c2ccc(N(C)C)cc2)c2cc([N+](=O)[O-])ccc2Cl)cc1` (stereo not shown) [Example 51, 4'-dimethylamino-4"-(N-methyl-N-(2-acetoxyethyl)amino)-2-chloro-5-nitrotriphenylmethane] registered a Ki above 10000 nM.

Molecule `CC(=O)OCCN(C)c1ccc(C(c2ccc(N(C)CCOC(C)=O)cc2)c2cc([N+](=O)[O-])ccc2Cl)cc1` [Example 31, 4',4" bis(N-(2-acetoxyethyl) N-methylamino)-2-chloro-5-nitrotriphenylmethane] yielded a Ki of 3520 nM. This lies in the single-digit micromolar range.

`CN(C)c1ccc(C(c2ccc(N(C)C)cc2)c2cc([N+](=O)[O-])ccc2Cl)cc1` [Example 1, 4',4" bis(dimethylamino)-2-chloro-5-nitrotriphenylmethane] showed a Ki of 3730 nM. This Ki and that of the molecule before are within 1.5-fold of each other.

The molecule `CNc1ccc(C(c2ccc(N(C)CCOC(C)=O)cc2)c2cc([N+](=O)[O-])ccc2Cl)cc1` (stereo not shown) [Example 49, 4'-methylamino-4"-(N-(2-acetoxyethyl)-N-methylamino)-2-chloro-5-nitrotriphenylmethane] registered a Ki of 1040 nM. Compared with the last molecule, the Ki is about 3.6-fold lower.

On to `CN(C)c1ccc(C(Sc2ccccc2)c2cc([N+](=O)[O-])ccc2Cl)cc1` (stereo not shown) [Example 54, phenyl-[(4'-dimethylaminophenyl)-(2-chloro-5-nitrophenyl)methyl]thioether], for which affinity was put at a Ki of 3730 nM.

`CNc1ccc(C(c2ccc(NC)cc2)c2cc(Cl)ccc2Cl)cc1` [Example 27, 4',4" bis(methylamino)-2,5-dichlorotriphenylmethane] showed a Ki of 3240 nM.

One may read the Ki as the equilibrium dissociation constant of an inhibitor or competing ligand from its target. High values mean weaker binding, low ones tighter binding.

Source of the values: EP1100483B1, “GLUCOCORTICOID-SELECTIVE ANTI-INFLAMMATORY AGENTS” (Abbott Laboratories, priority 1998, dated 2000).
